The numbers were not newly measured in patent US20060167069A1, “Pharmaceutical composition of metaxalone with enhanced oral bioavailability” (Sun Pharmaceutical Industries Ltd., priority 2002, published 2006), which cites them from elsewhere.

The conditions of the series: prior art statement.

Regarding `Cc1cc(C)cc(OCC2CNC(=O)O2)c1` (stereo not shown) [Metaxalone, 5-(3,5-dimethylphenoxymethyl)-2-oxazolidinone], the aqueous solubility entry is listed as “low aqueous solubility”.
